Data from paper PMC4125815, “Crystal structure of tRNA m^1A58 methyltransferase TrmI from Aquifex aeolicus in complex with S-adenosyl-L-methionine” (Journal of Structural and Functional Genomics, 2014).

Target: T1, A. aeolicus TrmI (Aquifex aeolicus, UniProt O66653)
T1 construct: gene aq_311
Experiment: X-ray crystal structure of the complex, […] Å
Type: binding
Conditions: co-crystallised with 2 mM AdoMet, pH 8.4, 20 °C; methyl donor site in C-terminal domain, 4 AdoMet per tetramer

T1 sequence (O66653 1-248): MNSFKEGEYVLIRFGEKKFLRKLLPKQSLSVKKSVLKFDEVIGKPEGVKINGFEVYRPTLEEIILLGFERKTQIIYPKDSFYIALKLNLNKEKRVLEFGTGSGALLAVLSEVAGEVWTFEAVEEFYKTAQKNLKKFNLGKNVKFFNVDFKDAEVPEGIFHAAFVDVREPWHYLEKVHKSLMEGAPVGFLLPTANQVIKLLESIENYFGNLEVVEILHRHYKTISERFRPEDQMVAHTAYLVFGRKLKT

Which “X-ray crystal structure of the complex, 2.2 Å” value does the source give for C[S+](CC[C@H](N)C(=O)O)C[C@H]1O[C@@H](n2cnc3c(N)ncnc32)[C@H](O)[C@@H]1O (stereo partly shown) [AdoMet] here?
Its value is “The methyl donor AdoMet is bound in the C-terminal domain of the protein”.
